Source: US7329782B2, “Compounds for the treatment of metabolic disorders” (Wellstat Therapeutics Corporation, priority 2001, dated 2008)

Columns and labels:
[1] = tested on: mice challenged with multiple high doses of STZ; assay: Mortality in severe insulin-dependent diabetes, multiple high doses of STZ (Example C); assay type: in vivo, balb/C mice; settings: STZ 75 mg/kg i.p. x 5 days, oral 30 mg/kg/day, after three weeks of daily treatment, 20 mice/group
Experimental: Female balb/C mice (19 wks of age at start of experiment) were challenged with multiple high doses of STZ (75 mg/kg i.p. on 5 consecutive days). Animals were then divided in two groups (20 mice/group) matched for severity of diabetes. Four days after the last dose of STZ, treatments were initiated. One group received Vehicle (0.4 ml of 0.75% HPMC, p.o.), and the other group received oral COMPOUND AA (30 mg/kg/day). After three weeks of daily treatment, cumulative mortality in the Vehicle Control group was 19/20 mice. In contrast, only 5/20 of the COMPOUND AA mice died during this time.

[2] = tested on: streptozotocin diabetic mice; assay: Streptozotocin diabetic mice treated with oral Compound AH for 14 weeks (Example A); assay type: in vivo, Balb/C mice; settings: STZ diabetic mice, 250 mg/kg daily oral, after several weeks of treatment
Experimental: Streptozotocin (STZ) is a toxin that selectively destroys insulin-producing pancreatic beta cells, and is widely used to induce insulin-dependent diabetes in experimental animals.
Female Balb/C mice (8 weeks old; 18-20 grams body weight) were treated with streptozotocin (STZ) (50 mg/kg i.p. on each of five consecutive days). Fourteen days after the last dose of STZ, blood glucose was measured to verify that the animals were diabetic, and the mice were divided into two groups of 5 animals each, one group receiving Compound AH (250 mg/kg) daily by oral gavage, and the other receiving vehicle (0.75% hydroxypropylmethylcellulose, a suspending agent, in water). […] Blood samples were taken periodically for determination of blood glucose concentrations, and body weights were also recorded.

[3] = tested on: mice with severe insulin-dependent diabetes induced by streptozotocin; assay: Survival of mice with lethal insulin-dependent diabetes, single dose of streptozotocin (Example B); assay type: in vivo, Balb/C mice
Experimental: Female Balb/C mice (14 weeks old) were treated with a single dose of streptozotocin (175 mg/kg i.p.) to induce severe insulin-dependent diabetes. Seven days later, mice were divided into three treatment groups: Compound AH, pioglitazone, and vehicle. Mice were treated daily via oral gavage, and survival was monitored over time.

[4] = tested on: ob/ob mice; assay: Acute hypoglycemic effect in ob/ob obese diabetic mice, Expt 2 (Example G); assay type: in vivo; settings: Mus musculus, single oral dose 250 mg/kg, 6 hours, read-out: % Reduction vs Control
Experimental: Male ob/ob mice (50-55 grams; blood glucose ˜300 mg/dL) were divided into groups of five animals each, and given a single oral dose of test drug (250 mg/kg) suspended in 0.5% carboxymethylcellulose vehicle; a control group received oral vehicle alone. Six hours after oral administration of test drugs or vehicle (control), blood samples were obtained from a tail vein and glucose content was determined with a glucometer.

[5] = tested on: ob/ob mice
Source text: Male lean (ob/+ heterozygote) and obese (ob/ob homozygote) C57BL/6 mice approximately 8 weeks of age were obtained from Jackson Labs (Bar Harbor, Me.) and randomly assigned into groups of 5 animals such that body weights and blood glucose concentrations were similar between groups. […] Blood glucose was routinely determined with glucose test strips and a Glucometer Elite XL device (Bayer Corporation). At selected time points, blood samples (˜100 microliters) were obtained with a heparinized capillary tube via the retro-orbital sinus for serum chemistry analysis.
The dose ranges of compounds in this experiment were chosen to include both suboptimal and potentially supraoptimal doses.

[6] = tested on: high fat-fed Sprague Dawley rats; assay: Circulating glucose, insulin, triglycerides and free fatty acids in high fat-fed Sprague Dawley rats (Example M); assay type: in vivo; settings: at all doses (10, 30 and 100 mg/kg)
Experimental: All animals were maintained in a temperature-controlled (25° C.) facility with a strict 12 h light/dark cycle and were given free access to water and food. Rats were fed a high-fat diet (diet number D12451 (containing 45% of calories as fat), Research Diets, New Brunswick, N.J.) for one month prior to drug treatment.
At the indicated time points, blood samples (˜100 μl) were obtained via the tail vein for serum chemistry analysis.

[7] = tested on: high fat-fed C57B1/6J mice; assay: Circulating triglycerides, free fatty acids, insulin and leptin in high fat-fed C57B1/6J mice (Example L); assay type: in vivo; settings: oral gavage, after 4 weeks of drug treatment
Source text: The high fat-fed mouse is a model for the hypertriglyceridemia and high circulating fatty acid levels, and the insulin and leptin resistance that are found in people at risk for and with obesity, diabetes, cardiovascular disease and other disorders. Male C57B1/6J mice, approximately 8 weeks of age, were randomly assigned into groups of 6 animals. […] Mice were fed a high-fat diet (diet number D12451, containing 45% of calories as fat (Research Diets, New Brunswick, N.J.)) for 6 weeks. […]

SMILES: O=C(O)CCC(=O)c1ccc(OCc2ccccc2F)cc1 [Compound AA, 4-(4-(2-Fluorobenzyloxy)phenyl)-4-oxobutyric acid]
- cumulative mortality (mice died) [1]: 5/20

SMILES: O=C(O)CCC(=O)c1ccc(OCc2c(F)cccc2F)cc1 [Compound AH, 4-(4-(2,6-Difluorobenzyloxy)phenyl)-4-oxobutyric acid]
- blood glucose concentrations [2]: began to decrease toward baseline
- Survivors (Survival at 12 weeks) ([3]; STZ 175 mg/kg i.p. mice, daily oral gavage 250 mg/kg/day): Four of the five
- body weights of survivors ([3]; at 12 weeks, 250 mg/kg/day oral): recovered and were maintained in the normal range

SMILES: O=C(O)CCC(=O)c1cccc(OCc2c(F)cccc2F)c1 [Compound AW, 4-(3-(2,6-Difluorobenzyloxy)phenyl)-4-oxobutyric acid]
- change in vivo at 250 mg/kg [4]: -53.1 ± 3.1%
- serum triglycerides and fatty acids ([5]; 100 to 300 mg/kg/day, versus comparators at their optimum antihyperglycemic doses): reduced serum triglycerides and fatty acids better than did either rosiglitazone or pioglitazone
- reduction in blood glucose ([5]; daily oral, over the dose range): comparable to that achieved with pioglitazone and rosiglitazone
- serum liver enzymes (ALT, AST, SDH) ([5]; doses ranging from 30 mg/kg/day to 300 mg/kg/day): dose-dependent decrease
- weight gain relative to vehicle-treated mice ([5]; four week treatment period, over the dose range): dose-dependent attenuation of weight gain

SMILES: Cc1cccc(C)c1COc1cccc(C(=O)CCC(=O)O)c1 [Compound BI, 4-(3-(2,6-Dimethylbenzyloxy)phenyl)-4-oxobutyric acid]
- free fatty acids [6]: reduced
- insulin serum levels (FIG. 1) [7]: effective at lowering
- leptin serum levels (FIG. 2) [7]: effective at lowering

SMILES: Cc1cccc(C)c1COc1cccc(C(=O)CCC(=O)[O-])c1.[Na+] [Compound BL, 4-(3-(2,6-Dimethylbenzyloxy)phenyl)-4-oxobutyric acid Sodium salt]
- insulin serum levels (FIG. 1) [7]: effective at lowering
- leptin serum levels (FIG. 2) [7]: effective at lowering
